Source: US20120321609A1, “METHOD OF TREATING PSYCHOLOGICAL DISORDERS” (priority 2011, published 2012)

Legend:
mouse neuronal cultures = experiment: Inositol phosphate formation in mouse cortical neuronal cultures; type: cell-based; conditions: CRF 500 nM pretreatment 30 min; 5-HT 50 μM
HA-CRFR1 = target: T1, HA-CRFR1 (Homo sapiens, UniProt P34998); experiment: Receptor endocytosis by flow cytometry in HEK 293 cells; type: cell-based; conditions: 500 nM CRF for 30 min at 37° C.; cells expressing only wild-type CRFR1
T1 construct: expressed in transfected cells; host or cells: HEK 293
T1 sequence (P34998 24-415): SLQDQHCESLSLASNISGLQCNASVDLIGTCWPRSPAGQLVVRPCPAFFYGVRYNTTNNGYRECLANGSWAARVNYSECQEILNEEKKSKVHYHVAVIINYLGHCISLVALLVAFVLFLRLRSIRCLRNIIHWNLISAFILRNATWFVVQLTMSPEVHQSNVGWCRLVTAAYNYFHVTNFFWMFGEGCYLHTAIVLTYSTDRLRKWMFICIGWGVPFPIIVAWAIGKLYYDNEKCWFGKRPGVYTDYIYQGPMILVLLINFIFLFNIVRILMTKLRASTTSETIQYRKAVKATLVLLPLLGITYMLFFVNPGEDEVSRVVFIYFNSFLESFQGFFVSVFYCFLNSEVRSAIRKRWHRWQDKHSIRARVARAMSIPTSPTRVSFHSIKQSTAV
Experimental: Cells were seeded on 10 cm dishes at 70-80% density 24 h prior to transfection. Transfection was performed using a modified calcium phosphate method, as described previously (Ferguson et al. (2004) Methods Mol. Biol. 237, 121-126). 1 μg of each construct was used for each transfection, with the exception that 3 μg of plasmid cDNA was used for all shRNA constructs. Empty pcDNA3.1 vector was used to equalize the total amount of plasmid cDNA used to transfect cells. 18 h post-transfection, cells were washed with phosphate buffered saline (PBS) and re-suspended with Trypsin 0.25% EDTA. Cells were then reseeded for experimentation. All experiments were conducted approximately 48 h after the initial transfection, with exception of transfections involving SAP97 shRNA, which were conducted 72 h after initial transfection to optimize the knockdown of endogenous SAP97, as confirmed by Western blotting.
Following transfection, HEK 293 cells were re-seeded into 12-well plates. […] Cells were washed with cold HBSS and treated with mouse anti-HA antibody (1:500) for 45 min on ice. […] Samples were run on a FACSCalibur cytometer using BD CellQuest Pro software until 10,000 cells were counted. The geometric mean of fluorescence was determined using FlowJo analysis software, with less fluorescence corresponding to less CRFR1 on the membrane.

mice [1] = experiment: Open field test (anxiety-related behaviour); type: in vivo, mouse; conditions: 5 min test; CRF 1.5 μg into medial prefrontal cortex, DOI 0.15 mg/kg i.p.; vs vehicle-vehicle or single treatment
Experimental: Male CD-1 mice were obtained from Charles River Canada (St. Constant, Quebec) at 50-60 days of age, and were acclimatized to the laboratory for approximately 30 days before serving as experimental subjects. Mice were housed four per cage, until the time of surgery, after which they were housed individually. The vivarium was maintained on a 12-h light/dark cycle in a temperature (21° C.) controlled room with food and water freely available. Mice were anesthetized using isoflurane and stereotaxic surgery (David Kopf Instruments Model 940) was performed to install a cannulae into the medial prefrontal cortex. A Guide cannulae (Plastics One In), situated according to the mouse atlas of Franklin and Paxinos at Lateral=0.32 mm, D/V=2.25 mm, A/P=+2.68 mm. A dummy cannula, was inserted flush with guide. Approximately 1 week after behavioral testing mice were perfused with 4% paraformaldehyde. […]
In an initial test, mice were placed in a 45×45 cm open field, with an inner square of 21×24×24 cm., for a 5 min period, during which the time to enter the center area, and the total time spent in the center portion of the arena was recorded. […] Mice were individually placed in one of the enclosed arms of a plus-maze and the behavior of the animals was recorded over a 5 min period by a ceiling-mounted video camera. […]

5-HT2AR [2] = target: T2, 5-HT2AR (Homo sapiens, UniProt P28223); experiment: 5-HT-stimulated inositol phosphate formation in HEK 293 cells co-expressing CRFR2 and 5-HT2AR; type: cell-based; conditions: CRF 500 nM pretreatment 30 min
5-HT2AR, sequence (P28223 whole entry, the tested form may be a part): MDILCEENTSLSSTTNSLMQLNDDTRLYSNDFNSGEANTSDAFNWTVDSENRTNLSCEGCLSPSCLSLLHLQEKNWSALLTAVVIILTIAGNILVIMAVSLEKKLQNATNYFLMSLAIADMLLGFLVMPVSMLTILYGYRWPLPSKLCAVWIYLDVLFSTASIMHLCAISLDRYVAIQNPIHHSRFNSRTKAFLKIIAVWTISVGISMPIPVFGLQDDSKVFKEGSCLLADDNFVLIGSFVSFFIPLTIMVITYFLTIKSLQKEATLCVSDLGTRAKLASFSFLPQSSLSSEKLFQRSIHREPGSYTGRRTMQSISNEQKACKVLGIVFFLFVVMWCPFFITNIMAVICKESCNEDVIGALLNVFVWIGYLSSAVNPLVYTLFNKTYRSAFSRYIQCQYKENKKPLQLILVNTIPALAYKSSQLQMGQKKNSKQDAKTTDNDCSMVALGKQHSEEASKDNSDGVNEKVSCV
T2 construct: expressed in transfected cells; host or cells: HEK 293
T2 sequence (P28223 whole entry): as the sequence (P28223 whole entry, the tested form may be a part) above

5-HT2AR [3] = experiment: Biotinylation of cell surface FLAG-5-HT2AR in HEK 293 cells; type: cell-based, human; conditions: CRF 500 nM pretreatment 30 min
Experimental: HEK 293 cells transiently expressing wild-type and truncated FLAG-5-HT2AR and HA-CRFR1 were seeded into 100 mm dishes and pre-incubated for 30 minutes in HBSS. […] Cell surface receptors were labeled on ice with biotin (1 mg/ml) for 1 hour. Following labeling, cells were washed 3 times with 10 mM glycine and then 2 times with HBSS, lysed and equal amounts of total protein were incubated with neutravidin beads for 2 hours with rotation at 4° C. Beads were then washed 3 times with lysis buffer and one time with PBS. Proteins were eluted from beads by addition of 50 ul of SDS loading buffer. Samples were resolved by SDS-PAGE, transferred to nitrocellulose membrane and subsequently immunoblotted as described above with rabbit polyclonal FLAG antibody.

mice [4] = experiment: Elevated plus maze test (anxiety-related behaviour); type: in vivo, mouse; conditions: DOI 0.15 mg/kg i.p.
Experimental: Male CD-1 mice were obtained from Charles River Canada (St. Constant, Quebec) at 50-60 days of age, and were acclimatized to the laboratory for approximately 30 days before serving as experimental subjects. Mice were housed four per cage, until the time of surgery, after which they were housed individually. The vivarium was maintained on a 12-h light/dark cycle in a temperature (21° C.) controlled room with food and water freely available. Mice were anesthetized using isoflurane and stereotaxic surgery (David Kopf Instruments Model 940) was performed to install a cannulae into the medial prefrontal cortex. A Guide cannulae (Plastics One In), situated according to the mouse atlas of Franklin and Paxinos at Lateral=0.32 mm, D/V=2.25 mm, A/P=+2.68 mm. A dummy cannula, was inserted flush with guide. Approximately 1 week after behavioral testing mice were perfused with 4% paraformaldehyde. Brains were subsequently sectioned at 14 microns and stained with Cresyl violet for probe placement verification. Only the data from mice with correct probe placements were used in the analysis of the behavioral tests.
Drug diffusion was permitted for 5 min, and then after a further 5 min period mice were injected intraperotineally with DOI (Sigma) at a dose of 0.15 mg/kg or saline. Behavioral testing was conducted 15 min after the DOI treatment. In a second experiment the procedure was identical to that of the preceding study, except that mice were pretreated i.p. with either vehicle or 0.25 mg/kg of M100907 in a volume of 0.3 ml immediately prior to the DOI treatment. As in the preceding study mice were then tested in the elevated plus maze test (n=6-8)/group. Once again, data were obtained from videotapes and the researcher was blind as to the treatments mice had received.
In an initial test, mice were placed in a 45×45 cm open field, with an inner square of 21×24×24 cm., for a 5 min period, during which the time to enter the center area, and the total time spent in the center portion of the arena was recorded. The plus maze test was then conducted 1 min after the open field assessment. Mice were individually placed in one of the enclosed arms of a plus-maze and the behavior of the animals was recorded over a 5 min period by a ceiling-mounted video camera. The amount of time spent in each of the arms, the number of arm entries (an arm entry was defined as all four of the paws being placed in an arm of the plus-maze). The elevated plus-maze had two arms enclosed by 21 cm high walls; whereas the remaining two arms were open (arms were 24.8 cm long×7.7 cm wide). The maze was situated in a dimly lit room, such that the closed arms were darkened, whereas open arms were somewhat illuminated. All behavioural experiments were blinded. All experiments complied with the guidelines set by the Canadian Council on Animal Care and were approved by the Carleton University Animal Care Committee.

[5] = first experiment, CRF 1.5 μg into medial prefrontal cortex
[6] = second experiment (M100907 study), CRF 1.5 μg mPFC, M100907 0.25 mg/kg i.p.

CRF: 41 amino acid peptide that activates the HPA axis; agonist of CRF receptors
effect of pretreatment on 5-HT-stimulated [3H]-myo-inositol conversion to inositol phosphate (mouse neuronal cultures): significantly increase | loss of cell surface HA-CRFR1 (HA-CRFR1): 24±4% | latency to enter the center square of open field (mice [1]): neither the CRF nor the DOI treatments alone influenced performance | effect of pretreatment on 5-HT2AR-stimulated inositol phosphate responses (5-HT2AR [2]): did not increase | increase in cell surface expression of the 5-HT2AR (5-HT2AR [3]): 3.7±1.8 fold | latency to enter an open arm of the plus maze (mice [4]; [5]): had no effect | number of entries into the closed arms of the plus maze (mice [4]; [5]): did not vary | number of entries onto the open arms of the plus maze (mice [4]; [5]): had no effect | frequency of open arm entries in the plus maze (mice [4]; [6]): neither CRF nor DOI alone affected the frequency of open arm entries | latency to enter the open arms of the plus maze (mice [4]; [6]): moderate, but statistically significant increase | time spent in the closed arms of the plus maze (mice [4]; [6]): unaffected | entries to the closed arms of the plus maze (mice [4]; second experiment (M100907 study), CRF 1.5 μg mPFC, M100907 0.25 mg/kg i.p., relative to vehicle): increased closed arm entries
